Activity calls are given as the source filed them. The calls are words filed in the database; no cut-off is given here.
What was measured:
Plasmodium falciparum [1] = test: Antimalarial activity against chloroquine-resistant Plasmodium falciparum W2 after 72 hrs; type: functional, organism-based; conditions: W2, 72 h
Plasmodium falciparum [2] = test: Antimalarial activity against chloroquine-sensitive Plasmodium falciparum D6 after 72 hrs; type: functional, organism-based; conditions: D6, 72 h
Vero = test: Cytotoxicity against african green monkey Vero cells upto 10 uM after 72 hrs; type: cell-based; conditions: chlorocebus sabaeus
[3] = Selectivity index, ratio of IC50 for african green monkey Vero cells to IC50 for chloroquine-sensitive Plasmodium falciparum D6; type: toxicity, cell-based; conditions: read-out: Selectivity Index
[4] = Selectivity index, ratio of IC50 for african green monkey Vero cells to IC50 for chloroquine-resistant Plasmodium falciparum W2; type: toxicity, cell-based; conditions: read-out: Selectivity Index
Plasmodium falciparum [5] = test: Antimalarial activity against chloroquine-sensitive Plasmodium falciparum D6 assessed as [3H]hypoxanthine incorporation; type: functional, organism-based
Plasmodium falciparum [6] = test: Antimalarial activity against chloroquine-resistant Plasmodium falciparum W2 assessed as [3H]hypoxanthine incorporation; type: functional, organism-based
Plasmodium falciparum [7] = test: Antimalarial activity against […]-resistant Plasmodium falciparum TM91C235 assessed as [3H]hypoxanthine incorporation; type: functional, organism-based
[8] = Inhibition of beta-hematin formation after 14 hrs by spectrophotometry; type: functional
Plasmodium berghei [9] = test: Antimalarial activity against Plasmodium berghei NK-65 infected in Swiss Webster mouse assessed as suppression of parasitemia at 1.1 mg/kg, ip QD for 3 days administered 2 hrs post infection measured on day 5; type: functional; conditions: route intraperitoneal
Plasmodium berghei [10] = test: Antimalarial activity against Plasmodium berghei NK-65 infected in Swiss Webster mouse assessed as suppression of parasitemia at 1.1 mg/kg, ip QD for 3 days administered 2 hrs post infection measured on day 7; type: functional; conditions: route intraperitoneal
Plasmodium berghei [11] = test: Antimalarial activity against Plasmodium berghei NK-65 infected in Swiss Webster mouse assessed as suppression of parasitemia at 1.1 mg/kg, ip QD for 3 days administered 2 hrs post infection measured on day 10; type: functional; conditions: route intraperitoneal
Plasmodium berghei [12] = test: Antimalarial activity against Plasmodium berghei NK-65 infected in Swiss Webster mouse assessed as suppression of parasitemia at 3.3 mg/kg, ip QD for 3 days administered 2 hrs post infection measured on day 5; type: functional; conditions: route intraperitoneal
Plasmodium berghei [13] = test: Antimalarial activity against Plasmodium berghei NK-65 infected in Swiss Webster mouse assessed as suppression of parasitemia at 3.3 mg/kg, ip QD for 3 days administered 2 hrs post infection measured on day 7; type: functional; conditions: route intraperitoneal
Plasmodium berghei [14] = test: Antimalarial activity against Plasmodium berghei NK-65 infected in Swiss Webster mouse assessed as suppression of parasitemia at 3.3 mg/kg, ip QD for 3 days administered 2 hrs post infection measured on day 10; type: functional; conditions: route intraperitoneal
Plasmodium berghei [15] = test: Antimalarial activity against Plasmodium berghei NK-65 infected in Swiss Webster mouse assessed as suppression of parasitemia at 10 mg/kg, ip QD for 3 days administered 2 hrs post infection measured on day 5; type: functional; conditions: route intraperitoneal
Plasmodium berghei [16] = test: Antimalarial activity against Plasmodium berghei NK-65 infected in Swiss Webster mouse assessed as suppression of parasitemia at 10 mg/kg, ip QD for 3 days administered 2 hrs post infection measured on day 7; type: functional; conditions: route intraperitoneal
Plasmodium berghei [17] = test: Antimalarial activity against Plasmodium berghei NK-65 infected in Swiss Webster mouse assessed as suppression of parasitemia at 10 mg/kg, ip QD for 3 days administered 2 hrs post infection measured on day 10; type: functional; conditions: route intraperitoneal
Plasmodium berghei [18] = test: Antimalarial activity against Plasmodium berghei NK-65 infected in Swiss Webster mouse assessed as suppression of parasitemia at 30 mg/kg, ip QD for 3 days administered 2 hrs post infection measured on day 5; type: functional; conditions: route intraperitoneal
Plasmodium berghei [19] = test: Antimalarial activity against Plasmodium berghei NK-65 infected in Swiss Webster mouse assessed as suppression of parasitemia at 30 mg/kg, ip QD for 3 days administered 2 hrs post infection measured on day 7; type: functional; conditions: route intraperitoneal
Plasmodium berghei [20] = test: Antimalarial activity against Plasmodium berghei NK-65 infected in Swiss Webster mouse assessed as suppression of parasitemia at 30 mg/kg, ip QD for 3 days administered 2 hrs post infection measured on day 10; type: functional; conditions: route intraperitoneal
Plasmodium berghei [21] = test: Antimalarial activity against Plasmodium berghei NK-65 infected in Swiss Webster mouse assessed as mean survival time at 1.1 mg/kg, ip QD for 3 days administered 2 hrs post infection measured on day 28; type: functional; conditions: route intraperitoneal
Plasmodium berghei [22] = test: Antimalarial activity against Plasmodium berghei NK-65 infected in Swiss Webster mouse assessed as mean survival time at 3.3 mg/kg, ip QD for 3 days administered 2 hrs post infection; type: functional; conditions: route intraperitoneal
Plasmodium berghei [23] = test: Antimalarial activity against Plasmodium berghei NK-65 infected in Swiss Webster mouse assessed as mean survival time at 10 mg/kg, ip QD for 3 days administered 2 hrs post infection; type: functional; conditions: route intraperitoneal
Plasmodium berghei [24] = test: Antimalarial activity against Plasmodium berghei NK-65 infected in Swiss Webster mouse assessed as mean survival time at 30 mg/kg, ip QD for 3 days administered 2 hrs post infection; type: functional; conditions: route intraperitoneal
Plasmodium berghei [25] = test: Antimalarial activity against Plasmodium berghei NK-65 infected in Swiss Webster mouse assessed as cure from parasite infection at 1.1 mg/kg, ip QD for 3 days administered 2 hrs post infection measured after 28 days; type: functional, organism-based; set-up: dose 1.1 mg/kg
Plasmodium berghei [26] = test: Antimalarial activity against Plasmodium berghei NK-65 infected in Swiss Webster mouse assessed as cure from parasite infection at 3.3 mg/kg, ip QD for 3 days administered 2 hrs post infection measured on day 28; type: functional, organism-based; set-up: dose 3.3 mg/kg
Plasmodium berghei [27] = test: Antimalarial activity against Plasmodium berghei NK-65 infected in Swiss Webster mouse assessed as cure from parasite infection at 10 mg/kg, ip QD for 3 days administered 2 hrs post infection measured on day 28; type: functional, organism-based; set-up: dose 10 mg/kg
Plasmodium berghei [28] = test: Antimalarial activity against Plasmodium berghei NK-65 infected in Swiss Webster mouse assessed as cure from parasite infection at 30 mg/kg, ip QD for 3 days administered 2 hrs post infection measured on day 28; type: functional; conditions: route intraperitoneal
Mus musculus = test: Toxicity in Plasmodium berghei NK-65 infected Swiss Webster mouse at 30 mg/kg, ip QD for 3 days; type: organism-based; set-up: dose 30 mg/kg, route intraperitoneal; conditions: in vivo, 72 h

SMILES	IC50 (Plasmodium falciparum [1]) [µM]	IC50 (Plasmodium falciparum [2]) [µM]	Activity (Vero)	selectivity ratio [3]	selectivity ratio [4]	IC50 (Plasmodium falciparum [6]) [µM]	IC50 (Plasmodium falciparum [7]) [µM]	IC50 [8] [µM]	Activity (Plasmodium berghei [18]) [%]	Activity (Plasmodium berghei [19]) [%]	Activity (Plasmodium berghei [20]) [%]	Time (Plasmodium berghei [24]) [days]	Activity (Plasmodium berghei [28]) [%]	further results
Clc1ccc2c(N3CCNCCN(c4ccnc5cc(Cl)ccc45)CCNCC3)ccnc2c1	0.0192	0.0075	Non-toxic	> 1330	> 521	0.0058	0.0025	1.1	100	100	100	>28	60	IC50 (Plasmodium falciparum [5]): 0.0041 µM; Activity (Plasmodium berghei [9]): 65.2%; Activity (Plasmodium berghei [10]): 33.3%; Activity (Plasmodium berghei [11]): 22.7%; Activity (Plasmodium berghei [12]): 84.6%; Activity (Plasmodium berghei [13]): 44.1%; Activity (Plasmodium berghei [14]): 43.9%; Activity (Plasmodium berghei [15]): 96.3%; Activity (Plasmodium berghei [16]): 59.7%; Activity (Plasmodium berghei [17]): 40.9%; Time (Plasmodium berghei [21]): 23.8 days; Time (Plasmodium berghei [22]): 22.8 days; Time (Plasmodium berghei [23]): 26.2 days; Activity (Plasmodium berghei [25]): inactive; Activity (Plasmodium berghei [26]): inactive; Activity (Plasmodium berghei [27]): inactive
Br.Clc1ccc2c(N3CCNCCNCCNCC3)ccnc2c1	0.211	0.0648	Non-toxic	> 154	> 48									
CCN(CC)CCCC(C)Nc1ccnc2cc(Cl)ccc12 (stereo not given) [CHLOROQUINE]			Non-toxic					9.5	100	100	100	>28	75	Activity (Mus musculus): Non-toxic
OC(c1cc(C(F)(F)F)nc2c(C(F)(F)F)cccc12)C1CCCCN1 (stereo not given) [MEFLOQUINE]						0.0072	0.0558							
C[C@@H]1CC[C@H]2[C@@H](C)C(=O)O[C@@H]3O[C@@]4(C)CC[C@@H]1[C@]32OO4 [ARTEMISININ]			Non-toxic											

Reference: ChEMBL document CHEMBL1649141, “Synthesis and antimalarial activities of cyclen 4-aminoquinoline analogs” (Antimicrob Agents Chemother, 2009)
